Paper PMC4097363, “Trace amines inhibit insect odorant receptor function through antagonism of the co-receptor subunit” (F1000Research, 2014)
Read-outs that look alike come from different tables or passages of the source.

What was measured:
Type in all cases: cell-based
Agam\Orco = target: T1, Agam\Orco (Anopheles gambiae, UniProt Q7QCC7); assay: Antagonism of OLC12 activation of Orco in Xenopus oocytes; conditions: 30µM OLC12, 10µM tryptamine
T1 sequence (Q7QCC7 1-478): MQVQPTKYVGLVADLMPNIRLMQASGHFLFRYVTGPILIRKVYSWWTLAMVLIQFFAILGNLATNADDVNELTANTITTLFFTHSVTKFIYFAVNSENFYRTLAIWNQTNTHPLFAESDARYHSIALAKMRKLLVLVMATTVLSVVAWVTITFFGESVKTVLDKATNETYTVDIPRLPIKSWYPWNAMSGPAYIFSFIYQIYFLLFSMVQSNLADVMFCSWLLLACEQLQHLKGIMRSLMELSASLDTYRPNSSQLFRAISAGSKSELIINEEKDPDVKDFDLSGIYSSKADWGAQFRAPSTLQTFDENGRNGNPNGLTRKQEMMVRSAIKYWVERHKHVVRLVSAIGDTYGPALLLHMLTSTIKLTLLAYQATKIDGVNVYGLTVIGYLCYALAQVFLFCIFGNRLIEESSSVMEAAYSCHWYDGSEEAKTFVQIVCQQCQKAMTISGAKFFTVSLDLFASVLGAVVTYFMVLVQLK
Procedure: (§1) Follicle cells were removed by treatment with collagenase B (Boehringer Mannheim) for 2 hours at room temperature. Capped cRNA encoding each OR subunit was generated using mMessage mMachine kits (Ambion). For heteromeric ORs, 25 ng of cRNA encoding each OR subunit was injected into Stage V-VI Xenopus oocytes. For expression of Orco homomers, 50 ng of cRNA was injected. Oocytes were incubated at 18°C in Barth's saline (in mM: 88 NaCl, 1 KCl, 2.4 NaHCO 3, 0.3 CaNO 3, 0.41 CaCl 2, 0.82 MgSO 4, 15 HEPES, pH 7.6, and 150µg/ml ceftazidime) for 2–5 days prior to electrophysiological recording.
(§2) Odorant and Orco ligand induced currents were recorded under two-electrode voltage clamp, using an automated parallel electrophysiology system (OpusExpress 6000A, Molecular Devices). Oocytes were perfused with ND96 (in mM: 96 NaCl, 2 KCl, 1 CaCl 2, 1 MgCl 2, 5 HEPES, pH 7.5). Orco ligands were prepared as 50 or 100 mM stock solutions in DMSO and then diluted into ND96 on the day of the experiment. Odorants were prepared as 100 mM stock solutions in DMSO and then diluted into ND96. Unless otherwise noted, applications were for 60 sec at a flow rate of 1.0 ml/min, with extensive washing in ND96 at 4.6 ml/min between applications. Micropipettes were filled with 3 M KCl and had resistances of 0.2–2.0 MΩ. The holding potential was -70 mV. […]

Dmel\Orco = target: T2, Dmel\Orco (Drosophila melanogaster, UniProt Q9VNB5); assay: as above; conditions: 20µM OLC12, 10µM tryptamine
T2 sequence (Q9VNB5 1-486): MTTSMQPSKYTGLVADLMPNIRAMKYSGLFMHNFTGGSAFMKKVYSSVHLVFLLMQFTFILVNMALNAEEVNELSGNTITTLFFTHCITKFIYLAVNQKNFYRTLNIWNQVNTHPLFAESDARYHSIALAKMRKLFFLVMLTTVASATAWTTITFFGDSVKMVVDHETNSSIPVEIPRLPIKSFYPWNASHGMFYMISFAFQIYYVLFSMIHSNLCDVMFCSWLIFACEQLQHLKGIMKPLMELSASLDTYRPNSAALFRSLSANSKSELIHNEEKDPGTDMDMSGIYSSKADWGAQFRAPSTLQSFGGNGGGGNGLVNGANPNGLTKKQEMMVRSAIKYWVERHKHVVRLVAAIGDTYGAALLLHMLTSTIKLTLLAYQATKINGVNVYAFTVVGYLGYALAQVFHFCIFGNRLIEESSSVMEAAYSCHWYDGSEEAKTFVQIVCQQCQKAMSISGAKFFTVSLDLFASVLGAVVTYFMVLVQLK
Procedure: as §1, §2

Agam\Orco+Agam\Or65 = Agam\Orco+Agam\Or65 (Anopheles gambiae, UniProt Q7QCC7); assay: Antagonism of OLC12 activation of heteromeric OR in Xenopus oocytes; conditions: for IC50: read-out: IC 50 for inhibition of Agam\Orco+Agam\Or65 activation
Procedure: as §1
(§3) Odorant and Orco ligand induced currents were recorded under two-electrode voltage clamp, using an automated parallel electrophysiology system (OpusExpress 6000A, Molecular Devices). Oocytes were perfused with ND96 (in mM: 96 NaCl, 2 KCl, 1 CaCl 2, 1 MgCl 2, 5 HEPES, pH 7.5). Orco ligands were prepared as 50 or 100 mM stock solutions in DMSO and then diluted into ND96 on the day of the experiment. Odorants were prepared as 100 mM stock solutions in DMSO and then diluted into ND96. Unless otherwise noted, applications were for 60 sec at a flow rate of 1.0 ml/min, with extensive washing in ND96 at 4.6 ml/min between applications. Micropipettes were filled with 3 M KCl and had resistances of 0.2–2.0 MΩ. The holding potential was -70 mV. Current responses, filtered (4-pole, Bessel, low pass) at 20 Hz (-3 db) and sampled at 100 Hz, were captured and stored using OpusXpress 1.1 software (Molecular Devices).
To screen for agonist activity, oocytes were exposed to 30 sec applications of candidate compounds with 5 min washes between applications ( Figure 2A). For the concentration-response protocol ( Table 1), applications were for 20 sec at a flow rate of 1.65 ml/min. […]
Initial analysis of electrophysiological data was done using Clampfit 9.1 software (Molecular Devices). […] Statistical significance (p<0.05) was assessed using a two-tailed unpaired t test, an F test, or a one-way analysis of variance followed by the Dunnett's post-test, as appropriate.

Cqui\Orco = Cqui\Orco (Culex quinquefasciatus, UniProt Q309I4); assay: Antagonism of OLC12 activation of Orco in Xenopus oocytes; conditions: for inhibition at 100 µM: Cqui\Orco activated by 30µM OLC12 (~EC5), 100µM of each amine, mean ± SEM, n = 3-10, read-out: inhibition of the OLC12 response; for IC50: read-out: IC 50 for inhibition of Cqui\Orco activation
Chain of Cqui\Orco (Q309I4 entry or part of it): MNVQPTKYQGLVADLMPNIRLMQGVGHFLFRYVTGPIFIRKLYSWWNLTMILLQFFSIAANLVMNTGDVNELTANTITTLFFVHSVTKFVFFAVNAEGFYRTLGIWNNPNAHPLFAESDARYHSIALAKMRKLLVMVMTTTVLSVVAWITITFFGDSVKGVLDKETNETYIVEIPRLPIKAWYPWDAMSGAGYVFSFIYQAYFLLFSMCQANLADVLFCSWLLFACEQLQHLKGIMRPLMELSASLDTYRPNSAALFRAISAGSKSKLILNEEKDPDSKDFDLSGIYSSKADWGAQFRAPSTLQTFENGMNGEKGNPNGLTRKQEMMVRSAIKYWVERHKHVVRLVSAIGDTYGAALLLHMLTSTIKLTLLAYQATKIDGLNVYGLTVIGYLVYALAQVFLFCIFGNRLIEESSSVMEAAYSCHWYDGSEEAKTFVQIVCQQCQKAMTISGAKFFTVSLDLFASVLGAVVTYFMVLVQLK
Procedure: as §1, §3
To screen for agonist activity, oocytes were exposed to 30 sec applications of candidate compounds with 5 min washes between applications ( Figure 2A). For the concentration-response protocol ( Table 1), applications were for 20 sec at a flow rate of 1.65 ml/min. To measure antagonist activity at Orco ( Figure 2B, 2C, Figure 3, Figure 4A and Figure 5A), oocytes were exposed to two 60 sec applications of the synthetic Orco agonist OLC12 (2-((4-Ethyl-5-(4-pyridinyl)-4H-1,2,4-triazol-3-yl)sulfanyl)-N-(4-isopropylphenyl)acetamide) with 4 min washes between applications. Oocytes were then exposed to a 90 sec application of antagonist candidate, immediately followed by a 60 sec co-application of antagonist candidate and OLC12. The current response in the presence of antagonist candidate was compared to the mean of the preceding two responses to OLC12 alone and is presented as a percentage.
Initial analysis of electrophysiological data was done using Clampfit 9.1 software (Molecular Devices). Curve fitting and statistical analyses were done using Prism 5 (Graphpad). Concentration-inhibition data were fit to the equation: I = I max/(1+ (X/IC 50) ^n) where I represents the current response at a given concentration of inhibitor, X; I max is the maximal response in the absence of inhibitor; IC 50 is the concentration of inhibitor present that still allows a half maximal response from odorant; n is the apparent Hill coefficient. Concentration-response data were fit to the equation: I = I max/(1+(EC 50/X) ^n) where I represents the current response at a given concentration of odorant, X; I max is the maximal response; EC 50 is the concentration of agonist yielding a half maximal response; n is the apparent Hill coefficient. Statistical significance (p<0.05) was assessed using a two-tailed unpaired t test, an F test, or a one-way analysis of variance followed by the Dunnett's post-test, as appropriate.

NCCc1c[nH]c2ccccc12 [tryptamine]
inhibition of OLC12 activation of Orco (Agam\Orco): inhibited OLC12 activation of Orco from each of these three insect species | inhibition of OLC12 activation of Orco (Dmel\Orco): inhibited OLC12 activation of Orco from each of these three insect species | mechanism of inhibition of OLC12 activation (Agam\Orco+Agam\Or65; Agam\Orco+Agam\Or65, 20µM vs 100µM OLC12): competitively inhibits OLC12 activation | IC50 (Agam\Orco+Agam\Or65; activated by 20µM OLC12): 2.9 ± 0.5 µM | IC50 (Agam\Orco+Agam\Or65; activated by 100µM OLC12): 8.5 ± 1.1 µM | inhibition at 100 µM (Cqui\Orco): 92 ± 2% | inhibition of OLC12 activation of Orco (Cqui\Orco; Cqui\Orco, 30µM OLC12, 10µM tryptamine): inhibited OLC12 activation of Orco from each of these three insect species | mechanism of antagonism of Cqui\Orco (Cqui\Orco; OLC12 increased from 30µM to 100µM): competitive antagonist | IC50 (Cqui\Orco; activated by 30µM OLC12): 4.7 ± 0.7 µM | IC50 (Cqui\Orco; activated by 100µM OLC12): 143 ± 18 µM

NCCc1ccc(O)cc1 [tyramine]
less potent than tryptamine (IC50 ratio) (Cqui\Orco; Cqui\Orco activated by 30µM OLC12): 33 fold | inhibition at 100 µM (Cqui\Orco): 40 ± 5% | IC50 (Cqui\Orco; activated by 30µM OLC12): 157 ± 22 µM
